Data published in EP1377579B1 (Aventis Pharmaceuticals Inc., priority 2000, dated 2002).
Values joined by “and” are separate entries in the source; they are usually repeats but may differ in a detail not shown here. Equal values may be shown once. Read-outs that look alike come from different tables or passages of the source.

Assays:
cdk4/cyclin D1 = cdk4/cyclin D1 (Homo sapiens, UniProt P11802); test: Cyclin-dependent kinase assay, cdk4/cyclin D1; type: biochemical; details: cyclin D1/cdk4; GST-pRb substrate, 10 µM ATP
MDA-MB-435 = test: In vitro proliferation assay (MTT), MDA-MB-435; type: cell-based, human; details: Homo sapiens
In short: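 Tetrazolium (MTT) reduction measures live cells remaining after 3 days with test compound, following overnight attachment at 1000–2500 cells/well. Dye is taken up in DMSO and read at 570 nm.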

HL-60 = test: In vitro proliferation assay (MTT), HL-60; type: cell-based; details: Homo sapiens
In short: (§1)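 Overnight-recovered cultures (1000–2500 cells/well) were treated with compound for 3 days and then given MTT at 37 C for 2–4 hr. Dye was extracted with DMSO and read at 570 nm. IC50s were fitted to the absorbance-versus-concentration data.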

Jurkat = test: In vitro proliferation assay (MTT), Jurkat; type: cell-based; details: Homo sapiens, read-out: Jurkat Leuk. (IC50 µM)
In short: as §1

HL-60 Human Leukemia = test: HL-60 human leukemia xenograft in nude mice; type: in vivo; set-up: key: tumor volume = ½(a × b²) from caliper diameters, in mm^3
Procedure: Antitumor efficacy is assessed using two subcutaneous human tumor xenograft models. The studies are performed using conventional assay techniques. Briefly, HL-60 (leukemia, 5 x10^5 cells) and PC-3 (prostate, 5 x 10^6 cells) tumor cells are injected subcuateously into nude mice (Crl-CD1-Br-nu, Charles River Laboratory, Wilmington, MA). Dosing with compounds began when tumors reached 50 to 100 mm^3. The dose route/schedule for the test compounds is ip/qld (5x/wk). The test doses are set based on the maximum tolerated dose (MTD). […] The test doses for the efficacy studies are set at 1/3rd the MTD (low dose) and the MTD (high dose). The results are shown in Tables 4 and 5 (HL-60, leukemia) (PC-3, prostate cancer). The length of the treatment phase is dependent on the tumor growth rate for the two models. This treatment phase is typically about 3 weeks for the HL-60 model and about 5 weeks for the PC-3 model. […] Dosing with flavopiridol is for the same time frame as for the experimental compounds in both xenograft models. Tumor volume (twice weekly) and body weights (once weekly) are monitored throughout the course of the treatment phase of the experiment. Tumor sizes are measured by external caliper measurements of protruding tumor. Volumes are calculated using the following formula: volume =½ (a x b2), where b is the smaller of two perpendicular diameters.

[1] = Red blood cell binding, mouse whole blood; type: in vitro ADME; details: 30 minutes at 37°C, 500 ng/ml
Procedure: Compounds, including one positive control, are assessed for red blood cell (RBC) uptake, using a modified procedure based on the protocol reported in Sun, J.X.S., et al. High-performance liquid chromatographic analysis, plasma protein binding and red blood cell partitioning of phenprobamate. Biopharmaceutics and Drug Disposition, 8 (1987) 341-351.
Briefly, RBC uptake is evaluated by comparison of the levels in spiked plasma (n=3) and plasma isolated from spiked whole blood (n=3). Compounds are incubated with human and mouse whole blood, respectively, for 30 minutes at 37°C using a nominal concentration of 500 ng/ml. Following centrifugation, the plasma is removed and submitted for analysis. Each compound is also spiked into blank plasma at a nominal concentration of 500 ng/ml, and submitted for analysis. Levels in the two plasma samples (Cp' and Cp in the equation below) and the blood hematocrit are used to determine the red blood cell to plasma ratio (Crbc/Cp). (Crbc)/(Cp) = (Cpʹ)/(Cp•H)-((1-H))/(H) [formula] In equation 1, Cp' is the level of drug in the spiked "blank" plasma, Cp is the level of drug in the plasma of spiked whole blood, and H is the hematocrit. The hematocrit values are determined as 0.4 for human whole blood and 0.41 for mouse whole blood. The samples are analyzed with ESI LC/MS, using positive ion detection with an internal standard.
The red blood cell to plasma ratio is determined for each compound using equation 1. Tables 6 and 7 summarize the respective mean Crbc/Cp values and standard deviations for mouse and human whole blood, respectively, in descending order based on the red blood cell to plasma ratio, where"*" denotes Positive Control, and "ND" denotes Not Determined. MDL 108552 is included as a positive control for red blood cell uptake. Table 6. Red Blood Cell to Plasma Ratio for compounds in mouse whole blood

cdk1/cyclin B = cdk1/cyclin B (Homo sapiens, UniProt P06493); test: Cyclin-dependent kinase assay, cdk1/cyclin B; details: CDK1 IC50, nM, Histone H1, 10 µM ATP
[2] = MDA-MB-435, MTT assay, value (SD, n) where given, read-out: MB-435 Breast (IC50 µM)
[3] = HL-60, MTT assay, value (SD, n) where given, read-out: HL-60 Leuk. (IC50 µM)
[4] = MTT assay, value (SD, n) where given
[5] = MDA-MB-435, read-out: MB-435 Breast (IC50 µM)
[6] = HL-60, read-out: HL-60 Leuk. (IC50 µM)

Chain of cdk4/cyclin D1 (P11802 whole entry): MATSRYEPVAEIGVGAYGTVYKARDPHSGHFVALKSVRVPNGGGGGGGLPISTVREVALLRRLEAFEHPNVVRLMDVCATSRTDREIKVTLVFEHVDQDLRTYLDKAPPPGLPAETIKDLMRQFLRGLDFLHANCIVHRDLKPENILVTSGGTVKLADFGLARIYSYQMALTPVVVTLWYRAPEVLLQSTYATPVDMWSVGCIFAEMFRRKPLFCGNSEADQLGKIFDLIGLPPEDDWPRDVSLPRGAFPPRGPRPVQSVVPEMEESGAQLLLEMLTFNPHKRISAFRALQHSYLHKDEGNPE
Chain of cdk4/cyclin D1 (P24385 whole entry partner): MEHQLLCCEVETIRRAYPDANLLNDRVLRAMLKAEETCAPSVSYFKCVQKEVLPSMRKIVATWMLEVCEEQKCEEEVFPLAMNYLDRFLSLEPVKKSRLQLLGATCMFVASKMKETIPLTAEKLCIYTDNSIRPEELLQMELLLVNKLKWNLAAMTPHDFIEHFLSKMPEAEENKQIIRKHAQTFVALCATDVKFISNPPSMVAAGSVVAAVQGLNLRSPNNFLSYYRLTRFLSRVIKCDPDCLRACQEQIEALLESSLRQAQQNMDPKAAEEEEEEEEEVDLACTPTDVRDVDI
Chain of cdk1/cyclin B (P06493 whole entry): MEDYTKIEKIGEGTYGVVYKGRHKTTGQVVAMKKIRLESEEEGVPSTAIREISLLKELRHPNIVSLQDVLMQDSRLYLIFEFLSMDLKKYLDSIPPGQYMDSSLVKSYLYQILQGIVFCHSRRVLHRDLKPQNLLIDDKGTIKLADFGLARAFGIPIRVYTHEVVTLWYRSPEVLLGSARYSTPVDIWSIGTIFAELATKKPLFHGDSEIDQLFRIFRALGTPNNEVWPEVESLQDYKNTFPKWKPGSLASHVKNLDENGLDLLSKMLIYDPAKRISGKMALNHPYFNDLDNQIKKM
Chain of cdk1/cyclin B (P14635 whole entry partner): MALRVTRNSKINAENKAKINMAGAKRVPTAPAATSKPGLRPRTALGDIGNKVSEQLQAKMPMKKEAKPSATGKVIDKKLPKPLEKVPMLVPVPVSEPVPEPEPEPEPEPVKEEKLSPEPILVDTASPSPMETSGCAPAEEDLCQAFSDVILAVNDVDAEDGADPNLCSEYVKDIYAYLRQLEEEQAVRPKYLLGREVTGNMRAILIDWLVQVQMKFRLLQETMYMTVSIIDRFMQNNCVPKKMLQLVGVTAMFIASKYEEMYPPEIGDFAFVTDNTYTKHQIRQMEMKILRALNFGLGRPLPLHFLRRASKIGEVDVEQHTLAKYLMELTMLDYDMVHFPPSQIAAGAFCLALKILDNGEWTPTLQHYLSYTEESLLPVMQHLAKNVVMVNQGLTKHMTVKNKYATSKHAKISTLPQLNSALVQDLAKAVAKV

| Compound | IC50 (cdk4/cyclin D1) [nM] | IC50 (MDA-MB-435; [2]) [µM] | IC50 (HL-60; [3]) [µM] | IC50 (Jurkat; [4]) [µM] | HL60 Mean Vol. ± SD (HL-60 Human Leukemia; Table 5, dose 3 mg/kg ip) | HL60 Mean Vol. ± SD (HL-60 Human Leukemia; Table 5, dose 10 mg/kg ip) | Mean Red Blood Cell to Plasma Ratio [1] | IC50 (cdk1/cyclin B) [nM] | IC50 (MDA-MB-435; [5]) [µM] | IC50 (HL-60; [6]) [µM] | IC50 (Jurkat) [µM] | HL60 Mean Vol. ± SD (HL-60 Human Leukemia; Table 5, dose 1 mg/kg ip) | Mean Red Blood Cell to Plasma Ratio ([1]; dihydrochloride) | HL60 Mean Vol. ± SD (HL-60 Human Leukemia; Table 4, dose 1 mg/kg ip) | HL60 Mean Vol. ± SD (HL-60 Human Leukemia; Table 4, dose 3 mg/kg ip) | HL60 Mean Vol. ± SD (HL-60 Human Leukemia; Table 4, dose 10 mg/kg ip) | HL60 Mean Vol. ± SD (HL-60 Human Leukemia; Table 4, dose 0.3 mg/kg ip) |
| --- | --- | --- | --- | --- | --- | --- | --- | --- | --- | --- | --- | --- | --- | --- | --- | --- | --- |
| Cl.Cl.N[C@H]1CC[C@H](Nc2nc(NC3CCN(C(=O)c4cccc(C(F)(F)F)c4F)CC3)c3ncn(C4CCCC4)c3n2)CC1 [compound 12, trans-1-{4-[2-(4-Amino-cyclohexylamino)-9-cyclopentyl-9H-purin-6-ylamino]-piperidin-1-yl}-1-(2-fluoro-3-trifluoromethyl-phenyl)-methanone dihydrochloride] | 614 | 0.28 | 0.16 | 0.48 | 4948 ± 2803 | 2624 ± 2108 | 1.9 | 88 |  |  |  |  |  |  |  |  |  |
| Cl.Cl.N[C@H]1CC[C@H](Nc2nc(NC3CCN(C(=O)Oc4ccc(Br)cc4)CC3)c3ncn(C4CCCC4)c3n2)CC1 [compound 81, trans-4-[2-(4-Amino-cyclohexylamino)-9-cyclopentyl-9H-purin-6-ylamino]-piperidine-1-carboxylic acid 4-bromo-phenyl ester dihydrochloride] | 67 |  |  |  | 5104 ± 4014 |  |  | 16 | 0.1 | 0.02 | 0.1 | 5802 ± 2996 | 3.3 and 4.5 |  |  |  |  |
| COC(=O)c1ccc(OC(=O)N2CCC(Nc3nc(N[C@H]4CC[C@H](N)CC4)nc4c3ncn4C3CCCC3)CC2)cc1.Cl.Cl [compound 83, trans-4-[2-(4-Amino-cyclohexylamino)-9-cyclopentyl-9H-purin-6-ylamino]-piperidine-1-carboxylic acid 4-methoxycarbonyl-phenyl ester dihydrochloride] | 185 |  |  |  | 5906 ± 2948 | 4057 ± 2599 | 112.2 | 19 | 0.17 | 0.06 | 0.14 |  |  |  |  |  |  |
| COc1ccc(OC(=O)N2CCC(Nc3nc(N[C@H]4CC[C@H](N)CC4)nc4c3ncn4C3CCCC3)CC2)cc1.Cl.Cl [compound 84, trans-4-[2-(4-Amino-cyclohexylamino)-9-cyclopentyl-9H-purin-6-ylamino]-piperidine-1-carboxylic acid 4-methoxy-phenyl ester dihydrochloride] | 69 |  |  |  | 4886 ± 3467 |  | 3.5 | 19 | 0.1 | 0.04 | 0.12 | 4790 ± 6912 |  |  |  |  |  |
| Cl.Cl.N[C@H]1CC[C@H](Nc2nc(NC3CCN(C(=O)Oc4ccc(F)cc4)CC3)c3ncn(C4CCCC4)c3n2)CC1 [compound 87, trans-4-[2-(4-Amino-cyclohexylamino)-9-cyclopentyl-9H-purin-6-ylamino]-piperidine-1-carboxylic acid 4-fluoro-phenyl ester dihydrochloride] | 27 |  |  |  |  |  | 3.4 | 15 | 0.11 | 0.05 | 0.2 |  |  | 3718 ± 2715 | 7096 ± 3079 |  |  |
| Cl.Cl.N[C@H]1CC[C@H](Nc2nc(NC3CCN(C(=O)Oc4ccc(Cl)cc4)CC3)c3ncn(C4CCCC4)c3n2)CC1 [compound 88, trans-4-[2-(4-Amino-cyclohexylamino)-9-cyclopentyl-9H-purin-6-ylamino]-piperidine-1-carboxylic acid 4-chloro-phenyl ester dihydrochloride] | 204 |  |  |  |  |  | 3.5 | 35 | 0.02 | 0.07 | 0.02 |  |  | 4415 ± 2740 | 2624 ± 2108 |  |  |
| Cl.Cl.N[C@H]1CC[C@H](Nc2nc(NC3CCN(C(=O)Oc4ccc([N+](=O)[O-])cc4)CC3)c3ncn(C4CCCC4)c3n2)CC1 [compound 89, trans-4-[2-(4-Amino-cyclohexylamino)-9-cyclopentyl-9H-purin-6-ylamino]-piperidine-1-carboxylic acid 4-nitro-phenyl ester dihydrochloride] | 65 |  |  |  |  |  | 4.7 | 20 | 0.06 | 0.02 | 0.07 |  |  | 2444 ± 2291 | 4278 ± 2801 |  |  |
| Cl.Cl.N[C@H]1CC[C@H](Nc2nc(NC3CCN(S(=O)(=O)c4ccc(F)cc4)CC3)c3ncn(C4CCCC4)c3n2)CC1 [compound 106, trans-N^2-(4-Amino-cyclohexyl)-9-cyclopentyl-N^6-[1-(4-fluoro-benzenesulfonyl)-piperidin-4-yl]-9H-purine-2,6-diamine dihydrochloride] | 15 | 0.12 | 0.1 | 0.19 |  |  | 3.0 | 8 |  |  |  |  |  | 4271 ± 3851 | 7368 ± 2592 |  |  |
| Cl.Cl.N#Cc1ccc(S(=O)(=O)N2CCC(Nc3nc(N[C@H]4CC[C@H](N)CC4)nc4c3ncn4C3CCCC3)CC2)cc1 [compound 109, trans-N^2-(4-Amino-cyclohexyl)-9-cyclopentyl-N^6-[1-(4-cyano-benzenesulfonyl)-piperidin-4-yl]-9H-purine-2,6-diamine dihydrochloride] | 12 | 0.11 | 0.12 | 0.44 |  |  | 2.4 | 18 |  |  |  |  |  |  | 2597 ± 2240 | 3466 ± 3730 |  |
| COC(=O)c1ccccc1S(=O)(=O)N1CCC(Nc2nc(N[C@H]3CC[C@H](N)CC3)nc3c2ncn3C2CCCC2)CC1.Cl.Cl [compound 111, trans-2-{4-[2-(4-Amino-cyclohexylamino)-9-cyclopentyl-9H-purin-6-ylamino]-piperidine-1-sulfonyl}-benzoic acid methyl ester dihydrochloride] | 51 | 0.43 | 0.38 | 1.05 |  |  | 2.2 | 17 |  |  |  |  |  |  | 3798 ± 2431 | 2387 ± 1282 |  |
| Cl.Cl.N[C@H]1CC[C@H](Nc2nc(NC3CCN(S(=O)(=O)c4cccc(C(F)(F)F)c4)CC3)c3ncn(C4CCCC4)c3n2)CC1 [compound 112, trans-N^2-(4-Amino-cyclohexyl)-9-cyclopentyl-N^6-[1-(3-trifluoromethyl-benzenesulfonyl)-piperidin-4-yl]-9H-purine-2,6-diamine dihydrochloride] | 224 | 0.87 | 0.18 | 0.11 |  |  | 2.4 | 32 |  |  |  |  |  | 4170 ± 3111 |  |  | 5413 ± 2845 |
